One experiment relates to Jurkat T cells. Description: c-Myc mRNA in Jurkat T cells treated with thrombospondin-1 or CD47-binding peptide (real time PCR). The class given is cell-based, human. The note with it: for c-Myc levels (FIG. 7E): CD47-binding peptide vs control peptide. The procedure: (§1) RNA extraction and Real Time PCR: Total RNA was extracted using TRIzol® reagent (Invitrogen, Rockville, Md.) 24-36 hours after transfection or as indicated. Harvested mouse tissues were frozen in liquid nitrogen or placed into RNA Later™ RNA Stabilization Reagent (Ambion, Life Technologies, Grand Island, N.Y.). Whole organs (lungs, spleen, kidney, testis, skeletal muscle, brain, heart, and liver) were homogenized in TRIzol® reagent, and RNA was isolated, cDNA was prepared using First Maxima First Strand cDNA Synthesis kit for RT-qPCR (Fermentas Life Sciences, Glen Burnie, Md.). Real Time PCR was performed using the primers listed herein as SEQ ID NOs: 3-34, and SYBR Green PCR master reaction mix (AB applied Sciences, Life Technologies, Grand Island, N.Y.) on an MJ Research OPTICON I instrument (Bio-Rad) with the following amplification program: 95° C. for 15 minutes, followed by 40 cycles of 95° C. for 15 seconds, 58° C. for 20 seconds, 72° C. for 25 seconds, and 7° C. for 1 minute. Melting curves were performed for each product from 30° C. to 95° C. reading every 0.5° C. with a 6-second dwell time. The fold changes in mRNA expression were calculated by normalizing to hypoxanthine phosphoribosyltransferase (HPRT1) and TATA-box binding protein associated factor (TAF9) for mouse tissues and endothelial cells, or β-2 microglobulin (B2M) mRNA levels for spleen and isolated splenocytes. B2M was used for normalization of mRNA levels in human cells. Note that the total RNA yield per cell was higher for all CD47-null and CD47-deficient cells and tissues as compared to WT.
Modulation of stem cell transcription factors by thrombospondin-1: Jurkat and JinB8 cells were centrifuged and re-suspended in RPMI+1% FBS at 10^6 cells/ml. Cells were plated in 12 well plates and treated with 1 μg/ml (2.2 nM) TSP1 using the indicated times and concentrations, and total RNA was isolated using TRIzol® reagent.

The test system of experiment [1] is HUVEC. Description: MTS proliferation assay of treated HUVEC. In kind it is cell-based, human. The note with it: 6 days post-treatment. The procedure:
Cell proliferation assays: Equal numbers of mouse lung endothelial cells from WT and CD47 (Passage 1) were plated in 96 well plates using RPMI+1% FBS. After 72 hours, net cell proliferation was assessed by the increase in formazan absorbance versus controls assessed at time 0 using Cell Titer 96R aqueous MTS kit (Promega, Madison, Wis.). DNA synthesis was measured using a BrdU Assay (EMD Biosciences, Billerica, Mass.).
Proliferative capacities of the treated HUVEC (CD47 morpholino, 7N3 peptide, or 604 control peptide) were assessed using MTS assays.

For a further experiment, the system named is WT Jurkat T cells. Description: QPCR analysis of c-Myc mRNA in WT Jurkat T cells treated with CD47 binding peptides. The class given is cell-based, human. The note with it: for c-Myc expression (FIG. 21B): 1 μM or 10 μM. The procedure:
FIGS. 21A and B are a pair of graphs showing QPCR analysis of c-Myc mRNA expression. WT Jurkat T cells were treated with the CD47 binding peptide 459 (also known as peptide 4N1) or control peptide 761 at 1 μM or 0.1 μM (FIG. 21A). WT Jurkat T cells were also treated with the CD47-binding peptide 7N3 or the control peptide 604 at 1 μm or 10 μM (FIG. 21B).
as §1

Another experiment has as its system HUVECs. Description: Real-time PCR of HUVECs treated for three weeks with neural medium and 7N3 peptide or B6H12 antibody. In kind it is cell-based, human. As to the method: as §1, with “WT. […]” for “WT.”
The test system of experiment [2] is HUVEC. Description: Sustained proliferation / self-renewal of HUVEC in continuous culture. The class given is cell-based, human. Conditions: 7N3 10 μM; B6H12 1 μg/ml. The text has this: (§2) Human umbilical vein endothelial cells (HUVEC), which express CD47, normally become senescent with repeated passage in tissue culture (FIG. 16A).
Therefore, antisense suppression of CD47 is sufficient to induce reprogramming of primary endothelial cells of a mesodermal lineage into an ectodermal lineage.

The subject of the next experiment is TSP1 null cells. The experiment is described as follows: Sustained proliferation of TSP1 null murine lung endothelial cells. Conditions: relative to WT cells. The class given is cell-based, mouse.
Source text: Cell culture and reagents: Thrombospondin-1 null (Lawler et al., J Clin Invest 101, 982-992, 1998) CD47 null mice (Lindberg et al., Science 274, 795-798, 1996) extensively back-crossed onto a C57Bl/6J background and WT mice were maintained in a pathogen-free environment according to protocols approved by the NCI Animal Care and Use Committee. Mouse lung endothelial cells were isolated and their purity verified as described previously (Zhou et al., Oncogene 25, 536-545, 2006). These conditions were previously documented to reproducibly yield >95% pure endothelial cells at passage two (CD31+, smooth muscle actin-). Mouse lung endothelial cells were cultured at 37° C. with 5% CO2 using Endothelial Growth Medium-2 (EGM2) (Thermo Scientific Fisher. Inc., Waltham, Mass.). Cell populations from mouse spleens were separated using the Pan T cell Isolation (130-095-130), CD4 (L3T4) (130-049-201), CD8a (Ly-2) (130-049-401) CD11b (130-049-601), CD19 microbead kits (130-052-201) (MACS, Miltenyi Biotech Germany).
as §2

The next experiment deals with JinB8 cells. The experiment is described as follows: c-Myc mRNA in CD47-deficient JinB8 cells treated with thrombospondin-1. The class given is cell-based, human. The note with it: Jurkat cells lacking CD47; at 24 hours. The procedure:
as §1, with “B2M was used for normalization of mRNA levels in human cells. Note that the total RNA yield per cell was higher for all CD47-null and CD47-deficient cells and tissues as compared to WT.” left out

Experiment [3] has as its system JinB8 cells re-expressing CD47. The experiment is described as follows: c-Myc expression in JinB8 cells re-expressing CD47 treated with thrombospondin-1. Conditions: CD47 re-expressed in JinB8 cells. The class given is cell-based, human. As to the method:
JINB8 cells were transfected with CD47-V5 construct using Amaxa™ Nucleofector™ (Lonza) non-viral transfection technology. The transfection efficiency was determined by flow Cytometry. The CD47-V5 transfected cells were purified using magnetic beads bound with human CD47 antibody (B6H12). The transfected cells were loaded onto MACS column which was placed in the magnetic field of a MACS® separator (Miltenyi Biotec). The magnetic bead labeled CD47^+ cells were retained on the column. The unlabeled cells ran through and were depleted from CD47^+ cells. After removal of the column, the CD47^+ cells bound to magnetic beads were eluted. The pure population of CD47^+ cells was stably cultured using G418 (250 μg/ml). The pure population of CD47^+ and Jurkat cells were centrifuged and re-suspended in RPMI with 1% FBS at 10^6 cells/ml. Cells were plated in 12 well plates and treated with 1 μg/ml (2.2 nM) thrombospondin-1, and total RNA was isolated using TRIzol®. The relative gene expression of c-MYC was measured using GAPDH as a control.

The next experiment relates to Human rTEC. Description: RT-PCR of self-renewal genes in human renal tubular epithelial cells. The class given is cell-based. The procedure: FIG. 25 is a series of graphs showing that blockade of CD47 elevates self-renewal transcription factors in human renal cells. Human rTEC were treated with TSp1 (2.2 nmol/L)±a CD47 monoclonal Ab (clone B6H12, 1 μg/ml) and RT-PCR performed for the indicated targets (top, c-Myc; middle. Sox2; bottom, Klf4). Results are the mean (±S.E.M.) of three separate experiments.
TSP1 inhibits self-renewal signals in primary human renal tubular epithelial cells, and CD47 blockade therapy elevates self renewal genes in human renal cells: It is not clear what role the TSP1-CD47 signal cascade played on self-renewal signaling in specific renal cell types. We wanted to confirm in human cells that activation of CD47 inhibits self-renewal genes. Renal tubular epithelial cells (rTEC) are a primary source of injury in the kidney. Human rTEC were treated with a low concentration of exogenous TSP1 (2.2 nmol/L) and found suppression of self-renewal genes including cMyc and Sox2 and Klf4 (FIG. 25). […] Thus, in human renal cells CD47 blockade increases the stem cell-pluripotent capacity of renal cells.

The mark [4] stands for this setting: real-time PCR, HUVECs three weeks in neural medium, two values per treatment.

Several values for one entry are separate records, joined by “and”; a condition that tells them apart may be missing. Equal values may be shown once.

Turning to “FIRGGMYEGKK (Synthetic peptide 604) [compound 604]”, the “c-Myc levels (FIG. 7E)” value with Jurkat T cells is “inactive”. Also, the “proliferation (MTS)” value with HUVEC [1] was “decreased proliferation”. Further, in the experiment on WT Jurkat T cells, the “c-Myc expression (FIG. 21B)” value was “did not”.
With FIRVVMYEGKK (Synthetic peptide 7N3), in the experiment with HUVECs (EBM serum free (neural basal) medium for 3 weeks, in words), the “expression of mRNAs encoding c-Myc and other stem cell transcription factors (Sox2, Klf4, Oct4) and nestin” value is “high expression”. Also, in the experiment with HUVECs (setting [4]), the “Oct4 C(t)” value was 34.48 and 34; the “c-Myc C(t)” value is 30.19 and 18.49; the “klf4 C(t)” value is 26.31 and 26.17; the “nestin C(t)” value was 31.6104 and 31.32. Also, the “sox2 C(t)” value in the experiment with HUVECs (setting [4]) was 28.09 and 29. Also, the “c-Myc levels (FIG. 7E)” value in the experiment with Jurkat T cells is listed as “suppression”. Also, in the experiment with HUVEC [2], the sustained proliferation entry was “dramatically increased”. For the same substance, the proliferative response result in the experiment with TSP1 null cells is “their response was less than the WT cells”. Also, the “proliferation (MTS)” value in the experiment on HUVEC [1] is listed as “enhanced proliferation”. Besides, in the experiment with WT Jurkat T cells, the “c-Myc expression (FIG. 21B)” value is recorded as “more dramatic increase”.
Consider “RFYVVMWK (Synthetic peptide - 4N1) [compound 459]”, for which, in the experiment with WT Jurkat T cells (0.1 μM, at 72 hours, relative to control peptide 761), the “c-Myc mRNA expression (FIG. 21A)” value was “significantly increased”.
Consider “TSP1: Human TSP1 purified from the supernatant of thrombin-activated platelets; CD47 ligand”, for which the “c-Myc levels, time course” value with Jurkat T cells (2.2 nM thrombospondin-1) is recorded as “transiently induced but then strongly inhibited”. For the same substance, in the experiment on Jurkat T cells (Jurkat cells), the “c-MYC expression (FIG. 14D)” value was “reduces c-MYC expression”. Moreover, the “concentration sufficient to inhibit c-Myc expression” value in the experiment with Jurkat T cells (at 24 hours) is given as “Picomolar concentrations”. Moreover, the “c-Myc mRNA levels” value in the experiment with JinB8 cells is “not significantly inhibited”. Also, in [3], the c-Myc expression entry was “reduces c-MYC expression”. In addition, the c-Myc expression result in [3] (listed as thrombospondin-1) is “restored the ability of thrombospondin-1 to inhibit c-Myc expression”. In addition, the “expression of self-renewal transcription genes” value in the experiment on Human rTEC (TSP1 2.2 nM, low passage cells) is recorded as “decreased expression of self-renewal transcription genes”. In the experiment with Human rTEC (TSP1 2.2 nmol/L, B6H12 1 μg/ml), the Klf4 expression result is recorded as “suppression”, the Sox2 expression entry is “suppression” and the cMyc expression result is on record as “suppression”.

The values above are taken from patent US11692175B2, “Methods for generation of pluripotent and multipotent cells” (The USA, as represented by the Secretary, Dept. of Health …, priority 2012, dated 2023).
